Measurements taken from patent EP2236138A1 (priority 2009, dated 2010).
Each block holds one compound with its values, some of them ahead of it.

How the values were obtained:
D1 = D1 (Homo sapiens, UniProt P21728); type: binding
D2 = D2 (Homo sapiens, UniProt P14416); type: binding
5HT1A = molecular target: T1, 5HT1A (Homo sapiens, UniProt P08908); type: binding
T1 sequence (P08908 1-422): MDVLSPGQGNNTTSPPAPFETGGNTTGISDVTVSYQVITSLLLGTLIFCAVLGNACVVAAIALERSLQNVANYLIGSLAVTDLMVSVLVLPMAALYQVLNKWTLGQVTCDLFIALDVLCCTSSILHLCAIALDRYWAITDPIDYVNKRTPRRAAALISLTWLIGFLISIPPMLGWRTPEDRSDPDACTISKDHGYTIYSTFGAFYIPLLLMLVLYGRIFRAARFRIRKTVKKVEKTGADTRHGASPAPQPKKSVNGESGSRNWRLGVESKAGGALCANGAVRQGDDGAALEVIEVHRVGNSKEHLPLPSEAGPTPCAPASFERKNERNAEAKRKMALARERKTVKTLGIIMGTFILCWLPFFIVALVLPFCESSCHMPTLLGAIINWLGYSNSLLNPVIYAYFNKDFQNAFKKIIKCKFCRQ

5HT1B = 5HT1B (Homo sapiens, UniProt P28222); assay: biochemical; type: binding
5HT1D = 5HT1D (Homo sapiens, UniProt P28221); assay: biochemical; type: binding
5HT2B = 5HT2B (Homo sapiens, UniProt P41595); assay: pKi values of test compounds, 5HT2B (Table 1); type: binding
5HT2C = molecular target: T2, 5HT2C (Homo sapiens, UniProt P28335); type: binding
T2 sequence (P28335 33-458): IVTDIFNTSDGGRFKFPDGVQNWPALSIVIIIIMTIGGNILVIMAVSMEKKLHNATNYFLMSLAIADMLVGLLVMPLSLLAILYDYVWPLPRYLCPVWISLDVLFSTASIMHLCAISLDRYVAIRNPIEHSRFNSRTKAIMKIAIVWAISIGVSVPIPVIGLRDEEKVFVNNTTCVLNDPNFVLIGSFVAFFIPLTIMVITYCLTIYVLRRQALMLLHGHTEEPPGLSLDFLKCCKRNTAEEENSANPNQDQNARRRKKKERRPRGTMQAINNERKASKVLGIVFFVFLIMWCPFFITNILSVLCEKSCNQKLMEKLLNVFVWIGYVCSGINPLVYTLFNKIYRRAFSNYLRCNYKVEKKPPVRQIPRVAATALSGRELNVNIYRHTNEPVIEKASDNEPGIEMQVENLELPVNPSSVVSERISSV

Alpha1A = molecular target: T3, Alpha1A (Homo sapiens, UniProt P35348); type: binding
T3 sequence (P35348 1-466): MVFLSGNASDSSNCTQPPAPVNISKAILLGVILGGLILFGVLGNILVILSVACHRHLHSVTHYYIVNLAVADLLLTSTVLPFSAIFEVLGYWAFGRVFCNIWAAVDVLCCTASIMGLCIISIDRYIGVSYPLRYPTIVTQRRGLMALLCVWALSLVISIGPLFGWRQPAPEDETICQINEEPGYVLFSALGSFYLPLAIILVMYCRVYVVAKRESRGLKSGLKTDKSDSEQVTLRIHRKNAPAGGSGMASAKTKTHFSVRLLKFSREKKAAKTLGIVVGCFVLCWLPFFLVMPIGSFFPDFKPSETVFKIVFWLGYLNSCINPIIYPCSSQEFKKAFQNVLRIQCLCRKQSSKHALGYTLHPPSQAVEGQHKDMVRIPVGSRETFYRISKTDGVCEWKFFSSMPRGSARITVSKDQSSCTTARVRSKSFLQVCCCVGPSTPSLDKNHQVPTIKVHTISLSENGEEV

Alpha2A = molecular target: T4, Alpha2A (Homo sapiens, UniProt P08913); assay: pKi values of test compounds, Alpha2A (Table 1); type: binding
T4 sequence (P08913 1-465): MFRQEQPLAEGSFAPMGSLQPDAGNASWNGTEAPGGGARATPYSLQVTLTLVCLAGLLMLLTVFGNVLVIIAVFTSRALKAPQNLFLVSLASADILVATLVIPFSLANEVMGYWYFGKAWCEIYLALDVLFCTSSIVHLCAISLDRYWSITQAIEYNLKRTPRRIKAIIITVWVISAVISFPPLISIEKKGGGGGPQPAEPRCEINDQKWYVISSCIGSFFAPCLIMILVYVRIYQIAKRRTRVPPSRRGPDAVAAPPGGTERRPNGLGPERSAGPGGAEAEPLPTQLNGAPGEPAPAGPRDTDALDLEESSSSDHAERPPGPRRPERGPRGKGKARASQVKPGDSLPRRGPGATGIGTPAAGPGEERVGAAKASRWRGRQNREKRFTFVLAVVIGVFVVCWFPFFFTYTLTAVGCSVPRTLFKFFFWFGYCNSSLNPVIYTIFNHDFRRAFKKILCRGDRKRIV

other 5HT receptors = assay: pKi value towards other 5HT receptors; type: binding
other dopamine receptors = assay: pKi value towards other dopamine receptors; type: binding
[1] = tested on: patients with major depression; assay: Semi-naturalistic open label study of combo pipamperone-citalopram in major depression; type: in vivo
Excerpt: Design: Semi-naturalistic i.e. inclusion of every 'natural' patient in an outpatient practice but without concomitant use of mood enhancing drugs, open label
Phase: Phase Ila - preliminary Proof of Concept
Location: Belgium - Research Centre ANIMA, Alken
End Points : Assessment scale scores, Hamilton Depression Rating Scale 17 items, Reduction, Response, Remission
Medication: Exclusion of mood stabilisers, antipsychotics (typical and atypical) and other antidepressants […]
Adverse events are assessed on: body as a whole, central and peripheral nervous system, gastrointestinal, musculoskeletal, psychiatric, respiratory, skin and appendages, vascular and urinary, taking into account discontinued treatment due to adverse events. Laboratory parameters, ECG, bodyweight and vital signs are not measured since this is a naturalistic study.

D3 = D3 (Homo sapiens, UniProt P35462); assay: biochemical; type: binding
5HT6rat = 5HT6rat (Rattus norvegicus, UniProt P31388); assay: pKi values of test compounds, 5HT6 rat (Table 1); type: binding
Beta1 = Beta1 (Homo sapiens, UniProt P08588); assay: pKi values of test compounds, Beta1 (Table 1); type: binding
Beta2 = Beta2 (Homo sapiens, UniProt P07550); assay: pKi values of test compounds, Beta2 (Table 1); type: binding
Sequence of Beta2 (P07550 whole entry): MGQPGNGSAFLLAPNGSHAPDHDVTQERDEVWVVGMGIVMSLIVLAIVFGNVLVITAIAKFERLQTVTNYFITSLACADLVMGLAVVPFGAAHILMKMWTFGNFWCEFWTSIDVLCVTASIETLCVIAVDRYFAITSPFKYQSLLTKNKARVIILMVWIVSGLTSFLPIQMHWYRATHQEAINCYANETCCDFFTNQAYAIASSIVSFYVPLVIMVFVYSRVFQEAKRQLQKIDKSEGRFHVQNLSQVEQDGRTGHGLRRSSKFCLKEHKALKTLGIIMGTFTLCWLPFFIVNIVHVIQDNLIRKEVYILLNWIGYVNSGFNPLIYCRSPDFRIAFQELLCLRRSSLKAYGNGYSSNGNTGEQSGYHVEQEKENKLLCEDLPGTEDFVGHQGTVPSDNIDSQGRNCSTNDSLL

Sequence of 5HT1B (P28222 whole entry): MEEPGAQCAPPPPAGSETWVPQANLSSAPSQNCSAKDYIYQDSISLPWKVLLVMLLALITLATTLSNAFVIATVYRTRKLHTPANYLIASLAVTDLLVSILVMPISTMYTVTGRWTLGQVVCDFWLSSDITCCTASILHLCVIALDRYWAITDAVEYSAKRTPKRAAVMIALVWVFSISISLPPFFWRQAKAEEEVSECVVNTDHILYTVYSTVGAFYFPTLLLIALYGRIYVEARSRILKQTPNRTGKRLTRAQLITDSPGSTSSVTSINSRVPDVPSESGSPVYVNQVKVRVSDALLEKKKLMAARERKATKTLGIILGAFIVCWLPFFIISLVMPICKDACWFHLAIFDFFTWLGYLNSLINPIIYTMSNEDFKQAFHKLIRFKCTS
Sequence of 5HT1D (P28221 whole entry): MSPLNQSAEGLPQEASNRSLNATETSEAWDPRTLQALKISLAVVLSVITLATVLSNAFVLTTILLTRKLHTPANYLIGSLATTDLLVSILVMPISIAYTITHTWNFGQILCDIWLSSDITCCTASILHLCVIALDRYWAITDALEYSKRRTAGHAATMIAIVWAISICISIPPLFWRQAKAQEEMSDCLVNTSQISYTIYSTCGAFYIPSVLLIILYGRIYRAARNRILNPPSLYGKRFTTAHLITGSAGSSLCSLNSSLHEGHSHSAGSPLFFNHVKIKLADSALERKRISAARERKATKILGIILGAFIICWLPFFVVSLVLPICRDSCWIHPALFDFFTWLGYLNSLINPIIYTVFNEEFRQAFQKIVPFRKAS
Sequence of D2 (P14416 whole entry): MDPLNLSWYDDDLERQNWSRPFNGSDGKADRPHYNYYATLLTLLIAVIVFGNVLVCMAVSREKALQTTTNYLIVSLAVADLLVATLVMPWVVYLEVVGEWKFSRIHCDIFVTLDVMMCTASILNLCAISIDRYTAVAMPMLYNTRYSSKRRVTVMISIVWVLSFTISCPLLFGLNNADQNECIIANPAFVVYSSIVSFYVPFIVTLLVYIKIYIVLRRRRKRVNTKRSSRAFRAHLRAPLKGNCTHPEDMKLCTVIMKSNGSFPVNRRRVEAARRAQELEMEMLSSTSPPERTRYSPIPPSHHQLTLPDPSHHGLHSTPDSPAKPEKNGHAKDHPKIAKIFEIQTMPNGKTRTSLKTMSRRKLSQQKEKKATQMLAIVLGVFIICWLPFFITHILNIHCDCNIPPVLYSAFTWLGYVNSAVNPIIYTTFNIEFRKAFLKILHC
Sequence of 5HT2B (P41595 whole entry): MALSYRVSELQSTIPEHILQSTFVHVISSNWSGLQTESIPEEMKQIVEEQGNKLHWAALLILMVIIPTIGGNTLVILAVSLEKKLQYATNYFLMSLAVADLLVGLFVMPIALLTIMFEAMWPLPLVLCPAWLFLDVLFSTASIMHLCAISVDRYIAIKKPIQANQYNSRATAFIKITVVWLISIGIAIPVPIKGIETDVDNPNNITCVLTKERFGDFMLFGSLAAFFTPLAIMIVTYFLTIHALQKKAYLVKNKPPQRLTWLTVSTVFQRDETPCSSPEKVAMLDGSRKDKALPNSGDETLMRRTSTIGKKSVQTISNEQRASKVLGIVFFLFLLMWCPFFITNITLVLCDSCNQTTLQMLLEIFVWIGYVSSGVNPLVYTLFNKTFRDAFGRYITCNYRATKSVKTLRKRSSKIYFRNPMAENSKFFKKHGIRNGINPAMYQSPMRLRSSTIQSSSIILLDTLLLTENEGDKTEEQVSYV
Sequence of D3 (P35462 whole entry): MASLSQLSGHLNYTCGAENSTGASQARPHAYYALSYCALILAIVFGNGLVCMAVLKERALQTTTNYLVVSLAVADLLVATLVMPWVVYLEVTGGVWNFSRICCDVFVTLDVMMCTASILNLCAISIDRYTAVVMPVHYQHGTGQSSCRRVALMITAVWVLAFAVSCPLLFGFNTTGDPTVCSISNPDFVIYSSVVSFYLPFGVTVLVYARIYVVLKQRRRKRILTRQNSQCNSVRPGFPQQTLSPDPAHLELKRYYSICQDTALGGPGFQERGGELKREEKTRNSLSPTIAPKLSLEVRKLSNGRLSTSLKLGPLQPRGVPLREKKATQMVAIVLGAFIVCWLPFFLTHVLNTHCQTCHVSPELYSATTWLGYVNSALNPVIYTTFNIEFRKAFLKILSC
Sequence of D1 (P21728 whole entry): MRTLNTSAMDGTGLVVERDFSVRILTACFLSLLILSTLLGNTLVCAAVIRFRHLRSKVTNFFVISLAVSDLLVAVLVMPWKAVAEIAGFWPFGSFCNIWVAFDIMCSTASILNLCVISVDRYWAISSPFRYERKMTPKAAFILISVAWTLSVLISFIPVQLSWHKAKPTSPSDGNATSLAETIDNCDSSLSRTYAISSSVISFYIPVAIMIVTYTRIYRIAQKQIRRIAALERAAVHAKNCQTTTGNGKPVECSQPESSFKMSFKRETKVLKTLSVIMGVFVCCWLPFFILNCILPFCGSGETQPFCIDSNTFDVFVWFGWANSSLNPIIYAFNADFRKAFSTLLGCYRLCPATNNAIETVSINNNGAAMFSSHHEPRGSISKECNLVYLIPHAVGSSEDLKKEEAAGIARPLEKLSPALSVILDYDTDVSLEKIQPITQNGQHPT
Sequence of 5HT6rat (P31388 whole entry): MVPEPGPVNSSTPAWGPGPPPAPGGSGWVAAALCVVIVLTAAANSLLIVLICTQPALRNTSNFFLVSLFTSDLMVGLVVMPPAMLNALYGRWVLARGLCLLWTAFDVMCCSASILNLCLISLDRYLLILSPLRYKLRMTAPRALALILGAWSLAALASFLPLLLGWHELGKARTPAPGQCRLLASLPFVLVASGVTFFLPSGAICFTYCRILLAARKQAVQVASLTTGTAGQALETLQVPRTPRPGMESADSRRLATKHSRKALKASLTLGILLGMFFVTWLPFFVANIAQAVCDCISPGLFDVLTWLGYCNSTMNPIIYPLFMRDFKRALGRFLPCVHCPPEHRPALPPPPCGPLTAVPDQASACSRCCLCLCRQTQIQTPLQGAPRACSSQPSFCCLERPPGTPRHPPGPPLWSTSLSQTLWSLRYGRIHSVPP
Sequence of Beta1 (P08588 whole entry): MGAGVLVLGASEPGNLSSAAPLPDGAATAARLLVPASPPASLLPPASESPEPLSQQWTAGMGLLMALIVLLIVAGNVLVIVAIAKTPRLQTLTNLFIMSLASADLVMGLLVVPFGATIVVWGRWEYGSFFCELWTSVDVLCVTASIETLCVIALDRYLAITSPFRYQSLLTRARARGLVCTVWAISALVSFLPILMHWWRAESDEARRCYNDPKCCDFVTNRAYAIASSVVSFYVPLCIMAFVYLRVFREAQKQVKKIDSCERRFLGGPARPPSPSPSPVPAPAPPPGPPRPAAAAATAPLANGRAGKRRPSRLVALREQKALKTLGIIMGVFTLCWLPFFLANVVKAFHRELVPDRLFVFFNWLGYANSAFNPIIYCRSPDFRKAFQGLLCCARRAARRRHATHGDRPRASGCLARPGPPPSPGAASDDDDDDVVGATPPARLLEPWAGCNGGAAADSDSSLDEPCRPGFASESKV

SMILES: N#Cc1ccc2c(c1)[C@H]1CN(CCCCNC(=O)c3ccc(-c4ccccc4)cc3)C[C@@H]1CO2 [S33084]
- pKi D1 (D1): 6-7
- pKi D2 (D2): 7-8
- pKi 5HT1A (5HT1A): <6
- pKi 5HT1B (5HT1B): 6-7
- pKi 5HT1D (5HT1D): 6-7
- pKi 5HT2B (5HT2B): 6-7
- pKi 5HT2C (5HT2C): 7-8
- pKi Alpha1A (Alpha1A): 6-7
- pKi Alpha2A (Alpha2A): <6

- pKi value towards other 5HT receptors (other 5HT receptors): less than 8
- pKi value towards other dopamine receptors (other dopamine receptors): less than 8
SMILES: NC(=O)C1(N2CCCCC2)CCN(CCCC(=O)c2ccc(F)cc2)CC1 [Pipamperon, 1'-[3-(p-Fluorobenzoyl)propyl]-[1,4'-bipiperidine]-4'-carboxamide]
- Sedative effects of pipamperone ([1]; major depression study, pipamperone 2-4 mg/day): lacking
- boosting effect of pipamperone on a SSRI, in this case citalopram ([1]; major depression, pipamperone 2-4 mg/day + citalopram 20-40 mg/day PO, 8 weeks): apparent

SMILES: OC1(c2ccc(Cl)cc2)CCN(Cc2c[nH]c3ccccc23)CC1 [L741626]
- Ki (D3): 10 to 100 nM
- Ki (5HT1B; read-out: pKi 5HT1B (converted)): > 1000 nM
- Ki (5HT1D): > 1000 nM
- Ki (5HT2B): 100 to 1000 nM
- Ki (Alpha2A): > 1000 nM

- pKi D2 (D2): 7-8
- pKi D3 (D3): 7-8
- pKi 5HT2C (5HT2C): <6
- pKi 5HT6rat (5HT6rat): 6-7
- pKi Beta1 (Beta1): <6
- pKi Beta2 (Beta2): <6
SMILES: O=C(C[C@H]1CCN(CCOc2cccc3c2OCCO3)C1)c1ccc(F)cc1 [S16924]
